Assay results: PMC9645260, “Small-molecule inhibitors of P-Rex guanine-nucleotide exchange factors” (Small GTPases, 2022)

Tests used:
HEK-293 cells = assay: Cell cycle stages by propidium iodide flow cytometry; type: cell-based
Method: Human embryonic kidney 293 (HEK-293) cells were grown at 37°C in a humidified 5% CO2 atmosphere in Dulbecco’s modified Eagle medium (DMEM, Gibco) supplemented with 10% foetal bovine serum (FBS), 100 units/ml penicillin and 100 µg/ml streptomycin. Cells were passaged by tryptic digest 1:4 approximately every 2 days. To measure cell cycle stages, 2 ml HEK293 cells were plated per well of a 6-well dish (Thermo Scientific, Nunc) at 10^5 cells/ml. After 24 h, the medium was replaced with fresh medium containing various concentrations of PREX-in1, as indicated, or 10 μM NSC23766, or vehicle control (0.1% DMSO), and cells were incubated for a further 24 h. The medium was removed but kept aside to recover any detached cells. Wells were washed with PBS, and cells recovered by trypsinization. Cell suspensions were pooled with the culture supernatant and centrifuged at 433 × g for 5 min at RT. Cells were washed in PBS, resuspended in ice-cold 70% ethanol/PBS, and incubated for 30 min at 4°C for fixation and permeabilization. Cells were washed once more in PBS, then stained with 50 µg/ml propidium iodide in PBS containing 100 µg/ml RNase for 30 min at 37°C. Cells were analysed by flow cytometry for the intensity of propidium iodide staining using a FACSCalibur flow cytometer. 10,000 cells were analysed per sample. Data analysis was done using FloJo software.

P-Rex2 DH domain = target: T1, P-Rex2 DH domain (Homo sapiens, UniProt Q70Z35); assay: Liposome-based GEF activity assay, isolated P-Rex2 DH domain; type: biochemical; conditions: 200 nM DH domain, read-out: inhibition of constitutive Rac-GEF activity of isolated P-Rex2 DH domain
T1 construct: constitutive Rac-GEF activity of the isolated P-Rex2 DH domain (by 92%); made in house; host or cells: Sf9 cells (baculovirus)
T1 sequence (Q70Z35 23-214 limits assumed): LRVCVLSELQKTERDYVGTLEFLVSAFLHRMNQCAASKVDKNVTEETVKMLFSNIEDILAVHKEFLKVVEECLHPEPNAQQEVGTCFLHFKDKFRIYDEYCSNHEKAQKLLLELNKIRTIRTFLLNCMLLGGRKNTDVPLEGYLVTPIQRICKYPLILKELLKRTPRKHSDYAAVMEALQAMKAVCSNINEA
Method: Full-length N-terminally EE-tagged P-Rex1, P-Rex2, the P-Rex1 DH and DHPH domains and the P-Rex2 DH domain were produced in Sf9 cells using baculoviral transduction and were purified using anti-EE beads, as previously described. Briefly, frozen pellets from 500 ml of Sf9 culture infected with P-Rex expressing high-titre baculovirus were resuspended in ice-cold lysis Sf9-cell lysis buffer 2 (1x PBS, 1% Triton X-100, 5 mM EGTA, 1 mM EDTA, 25 mM NaF, 20 mM β-glycerophosphate, 1 mM DTT, 100 µM PMSF, 10 μg/ml each of leupeptin, pepstatin A, aprotinin and antipain) for 5 min and then ultracentrifuged at 118,000 × g for 1 h at 4°C. Supernatants were incubated with pre-washed anti-EE beads for 90 min on ice with end-over-end rotation. […] Protein concentration and purity were determined by coomassie staining of SDS-PAGE gels. […]
Liposome-based GEF activity assays were carried out essentially as described, except that GEFs were incubated with inhibitor compounds prior to the assay. […] Small GTPases were isolated using anti-EE antibody-coupled Sepharose beads or glutathione Sepharose beads, as appropriate, by incubation on ice for 90 min with end-over-end rotation, four washes in ice-cold wash buffer and resuspension of beads in Ultima Gold scintillation fluid (Perkin Elmer). ^35S-GTPγS incorporation was assessed by scintillation counting (Packard 1600TR, Liquid Scintillation Analyser).

COc1ccc(-c2[nH]nc3c2C(c2ccc(-c4ccc(Cl)cc4)o2)C(C#N)=C(N)O3)cc1 (stereo not drawn) [PREX-in1, 6-amino-4-[5-(4-chlorophenyl)-2-furyl]-3-(4-methoxyphenyl)-2,4-dihydropyrano[2,3-c]pyrazole-5-carbonitrile]
cytotoxic effects (HEK-293 cells; 1 µM): did not observe cytotoxic effects
cell death (sub-G1 phase) (HEK-293 cells; 24 h treatment, 10 µM): promotes cell death
inhibition at 10 µM (P-Rex2 DH domain): 92%
